Converted amounts (≈) assume the structure as drawn.
What was measured:
MCF7 [1] = assay: Antiproliferative activity against human MCF7 cells assessed as inhibition of cell growth by MTT assay; type: functional, cell-based
HCT-116 [2] = assay: Antiproliferative activity against human HCT-116 cells assessed as inhibition of cell growth by MTT assay; type: functional, cell-based
HeLa = assay: Antiproliferative activity against human HeLa cells assessed as inhibition of cell growth by MTT assay; type: functional, cell-based
PC-3 [3] = assay: Antiproliferative activity against human PC-3 cells assessed as inhibition of cell growth by MTT assay; type: functional, cell-based
LNCaP = assay: Antiproliferative activity against human LNCaP cells expressing p53 assessed as inhibition of cell growth by MTT assay; type: functional, cell-based
[4] = biological target: Tumour suppressor protein p53/Mdm4 (Homo sapiens, UniProt O15151+P04637); assay: Binding affinity to MDM4/p53 interaction (unknown origin) assessed as inhibition constant; type: protein assay
[5] = biological target: T1, Tumour suppressor p53/oncoprotein Mdm2 (Homo sapiens, UniProt P04637+Q00987); assay: Binding affinity to MDM2/p53 interaction (unknown origin) assessed as inhibition constant; type: protein assay
A549 [6] = assay: Antiproliferative activity against human A549 cells assessed as inhibition of cell growth; type: functional, cell-based
HCT-116 [7] = assay: Antiproliferative activity against human HCT-116 cells assessed as inhibition of cell growth; type: functional, cell-based
MCF7 [8] = assay: Antiproliferative activity against human MCF7 cells assessed as inhibition of cell growth; type: functional, cell-based
HL-60 = assay: Antiproliferative activity against human HL-60 cells assessed as inhibition of cell growth; type: functional, cell-based
U-87 MG [9] = assay: Antiproliferative activity against human U87 cells assessed as inhibition of cell growth; type: functional, cell-based, U-87MG ATCC
PANC-1 = assay: Antiproliferative activity against human PANC-1 cells assessed as inhibition of cell growth by MTT assay; type: functional, cell-based
HT-29 = assay: Antiproliferative activity against human HT-29 cells assessed as inhibition of cell growth by MTT assay; type: functional, cell-based
[10] = biological target: E3 ubiquitin-protein ligase Mdm2 (Homo sapiens) (UniProt Q00987); assay: Binding affinity to MDM2 (unknown origin) assessed as change in Gibbs free energy
A549 [11] = assay: Antiproliferative activity against human A549 cells assessed as inhibition of cell growth by MTT assay; type: functional, cell-based
JEG-3 = assay: Antiproliferative activity against human JEG-3 cells assessed as inhibition of cell growth; type: functional, cell-based
MDA-MB-231 [12] = assay: Antiproliferative activity against human MDA-MB-231 cells assessed as inhibition of cell growth; type: functional, cell-based
SH-SY5Y = assay: Antiproliferative activity against human SH-SY5Y cells assessed as inhibition of cell growth by CCK-8 assay; type: functional, cell-based
[13] = biological target: E3 ubiquitin-protein ligase Mdm2 (Homo sapiens) (UniProt Q00987); assay: Binding affinity to MDM2 (unknown origin) at 10 uM relative to control
U-87 MG [14] = assay: Antiproliferative activity against human U-87 MG cells assessed as inhibition of cell growth by CCK-8 assay; type: functional, cell-based, U-87MG ATCC
HCT-116 [15] = assay: Antiproliferative activity against human HCT-116 cells assessed as inhibition of cell growth by CCK-8 assay; type: functional, cell-based
K562 = assay: Antiproliferative activity against human K562 cells assessed as inhibition of cell growth; type: functional, cell-based
PC-3 [16] = assay: Induction of apoptosis in human PC-3 cells assessed as increase in p53 level; type: functional
PC-3 [17] = assay: Antiproliferative activity against human PC-3 cells assessed as inhibition of cell growth; type: functional, cell-based
A549 [18] = assay: Induction of apoptosis in human A549 cells assessed as increase in p53 level; type: functional
HCT-116 [19] = assay: Induction of apoptosis in human HCT-116 cells assessed as increase in p53 level; type: functional
MDA-MB-231 [20] = assay: Induction of apoptosis in human MDA-MB-231 cells assessed as increase in p53 level; type: functional
[21] = biological target: T1, Tumour suppressor p53/oncoprotein Mdm2; assay: Inhibition of MDM2/p53 interaction (unknown origin); type: protein assay

T1 sequence (P04637 whole entry): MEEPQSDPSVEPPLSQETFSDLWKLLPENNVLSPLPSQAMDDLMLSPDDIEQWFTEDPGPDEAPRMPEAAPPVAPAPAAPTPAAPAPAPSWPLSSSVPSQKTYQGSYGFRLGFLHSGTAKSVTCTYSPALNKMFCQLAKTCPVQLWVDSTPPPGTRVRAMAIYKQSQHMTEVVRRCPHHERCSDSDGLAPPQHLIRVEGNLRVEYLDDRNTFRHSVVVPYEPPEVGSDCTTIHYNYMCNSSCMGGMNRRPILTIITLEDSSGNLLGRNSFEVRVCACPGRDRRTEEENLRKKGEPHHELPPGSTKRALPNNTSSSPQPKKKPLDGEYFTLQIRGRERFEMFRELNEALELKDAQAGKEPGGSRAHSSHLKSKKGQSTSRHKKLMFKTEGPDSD
T1 sequence (Q00987 whole entry): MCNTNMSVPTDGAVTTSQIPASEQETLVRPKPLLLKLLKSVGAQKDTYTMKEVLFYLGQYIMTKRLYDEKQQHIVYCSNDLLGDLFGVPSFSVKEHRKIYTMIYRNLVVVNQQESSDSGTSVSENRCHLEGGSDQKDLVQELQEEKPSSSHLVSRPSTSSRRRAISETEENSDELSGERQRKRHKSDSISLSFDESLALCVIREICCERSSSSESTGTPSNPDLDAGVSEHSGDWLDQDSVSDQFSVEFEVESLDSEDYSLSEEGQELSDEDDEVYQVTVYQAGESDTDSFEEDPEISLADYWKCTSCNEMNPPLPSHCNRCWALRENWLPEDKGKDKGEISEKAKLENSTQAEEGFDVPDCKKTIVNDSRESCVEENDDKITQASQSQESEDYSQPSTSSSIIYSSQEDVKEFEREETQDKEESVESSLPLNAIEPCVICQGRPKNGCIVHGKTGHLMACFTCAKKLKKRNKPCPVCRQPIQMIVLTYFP
Chain of E3 ubiquitin-protein ligase Mdm2 (Homo sapiens) (Q00987 whole entry, looked up): as the sequence (Q00987 whole entry) above
Chain of Tumour suppressor protein p53/Mdm4 (P04637 whole entry): as the sequence (P04637 whole entry) above
Chain of Tumour suppressor protein p53/Mdm4 (O15151 whole entry): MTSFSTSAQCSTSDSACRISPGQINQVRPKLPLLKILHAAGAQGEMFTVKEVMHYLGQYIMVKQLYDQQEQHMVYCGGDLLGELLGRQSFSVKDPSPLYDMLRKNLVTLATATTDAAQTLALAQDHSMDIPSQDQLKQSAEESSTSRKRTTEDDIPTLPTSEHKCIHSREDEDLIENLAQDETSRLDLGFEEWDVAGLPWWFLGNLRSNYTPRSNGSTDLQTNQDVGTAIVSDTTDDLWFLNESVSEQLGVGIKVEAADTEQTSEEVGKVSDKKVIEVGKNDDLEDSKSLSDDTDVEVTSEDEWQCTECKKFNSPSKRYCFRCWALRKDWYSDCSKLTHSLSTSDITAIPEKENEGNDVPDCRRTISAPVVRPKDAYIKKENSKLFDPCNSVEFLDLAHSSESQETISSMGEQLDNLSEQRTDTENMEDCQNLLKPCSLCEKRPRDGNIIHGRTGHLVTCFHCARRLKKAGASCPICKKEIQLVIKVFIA

## Cc1cc(S(=O)(=O)/N=C2/NCCN2Cc2cc(C(F)(F)F)cc(C(F)(F)F)c2)c(SCc2nc(N)nc(N3CCN(Cc4ccccc4)CC3)n2)cc1Cl
MCF7 [1]
  IC50: 4.8 µM
HCT-116 [2]
  IC50: 4.8 µM
HeLa
  IC50: 4.8 µM

## C[C@@H]1[C@@H]2CCCC[C@@H]2N2[C@H]1[C@@H](c1ccccc1)[C@@]1(CCC/C(=C\c3ccccc3)C1=O)[C@@]21C(=O)Nc2cc(Cl)ccc21
PC-3 [3]
  IC50: 3.7 µM

## Cc1cc(S(=O)(=O)/N=C2/NCCN2Cc2cc(C(F)(F)F)cc(C(F)(F)F)c2)c(SCc2nc(N)nc(N3CCN(c4ccccc4)CC3)n2)cc1Cl
MCF7 [1]
  IC50: 3.6 µM
HCT-116 [2]
  IC50: 3.6 µM
HeLa
  IC50: 3.6 µM

## COc1ccc([C@@H]2CN(C)[C@@]3(C(=O)Nc4ccccc43)[C@]23N=C(c2ccc(C)cc2)OC3=O)cc1
PC-3 [3]
  IC50: 3.21 µM
LNCaP
  IC50: 1.08 µM

## O=C1/C(=C/c2cccc(Cl)c2)c2ccccc2N1S(=O)(=O)c1cccc(Cl)c1
[4]
  Ki: 0.031 µM
[5]
  Ki: 7.24 µM
A549 [6]
  IC50: 12.5 µM
HCT-116 [7]
  IC50: 11.2 µM
MCF7 [8]
  IC50: 6.17 µM

## C[C@@H]1[C@@H]2CCCC[C@@H]2N2[C@H]1[C@@H](c1ccc(F)cc1)[C@@]1(CCC/C(=C\c3ccc(F)cc3)C1=O)[C@@]21C(=O)Nc2cc(Cl)ccc21
HeLa
  IC50: 7.2 µM

## O=c1[nH]cc(F)c(=O)[nH]1 [FLUOROURACIL]
MCF7 [8]
  IC50: 78.3 µM

## O=C(Nc1cccc(Cl)c1)Sc1nnc(-c2ccc(Cl)cc2)n1-c1ccccc1
A549 [6]
  IC50: 3.85 µM
HL-60
  IC50: 17.5 µM
U-87 MG [9]
  IC50: 4.15 µM

## COc1ccc(-c2nc3sc(-c4ccc(Br)cc4Br)cn3n2)cc1
PANC-1
  IC50: 1.6 µM
HT-29
  IC50: 1.3 µM
[10]
  deltaG: -7.55 kcal/mol
A549 [11]
  IC50: 1.4 µM
MCF7 [1]
  IC50: 1.2 µM

## C[C@@H]1CN(C)[C@]2(C(=O)N(CN3CCSCC3)c3ccccc32)[C@@]12CCC/C(=C\c1ccccc1)C2=O
JEG-3
  IC50: 31 µg/mL (≈ 61.8 µM)
MDA-MB-231 [12]
  IC50: 31 µg/mL
MCF7 [8]
  IC50: 31 µg/mL

## Cc1cc(S(=O)(=O)/N=C2/NCCN2Cc2ccc(C(F)(F)F)cc2)c(SCc2nc(N)nc(N3CCN(c4cccc(C(F)(F)F)c4)CC3)n2)cc1Cl
MCF7 [1]
  IC50: 5 µM
HCT-116 [2]
  IC50: 5 µM
HeLa
  IC50: 5 µM

## O=C1NC(O)(c2ccc(Cl)cc2)C(c2ccc(Cl)cc2)=C1c1ccc(Cl)cc1 (stereo not drawn)
SH-SY5Y
  IC50: 1.48 µM
[13]
  Activity: 97%
U-87 MG [14]
  IC50: 0.93 µM
HCT-116 [15]
  IC50: 0.59 µM

## CN1[C@H](c2ccc(Cl)cc2)[C@@]2(C[C@]13C(=O)Nc1ccc(Br)cc13)NC(=O)N(c1ccc(F)c(Cl)c1)C2=O
MCF7 [1]
  IC50: 1.3 µM

## COc1ccc(/C=C2\CCC[C@@]3(C2=O)[C@@H]2CCCN2[C@@]2(C(=O)Nc4ccccc42)[C@H]3c2ccc(OC)cc2)cc1
K562
  IC50: 13.4 µM

## C[C@@H]1CN(C)[C@]2(C(=O)N(CN3CCCC3)c3ccccc32)[C@@]12CCC/C(=C\c1ccccc1)C2=O
JEG-3
  IC50: 31 µg/mL (≈ 66 µM)
MDA-MB-231 [12]
  IC50: 31 µg/mL
MCF7 [8]
  IC50: 31 µg/mL

## O=C(c1nc2ccccc2[nH]1)[C@H]1[C@H](c2ccccc2)C2CC3CCCCC3N2[C@]12C(=O)Nc1ccc(Cl)cc12 (stereo partly drawn)
PC-3 [16]
  Activity: 57.53%
PC-3 [17]
  IC50: 3.4 µM
A549 [6]
  IC50: 7.81 µM
A549 [18]
  Activity: 34.31%
HCT-116 [7]
  IC50: 7.24 µM
HCT-116 [19]
  Activity: 49.83%
MDA-MB-231 [20]
  Activity: 51.51%
MDA-MB-231 [12]
  IC50: 2.4 µM

## Cc1cc(S(=O)(=O)/N=C2/NCCN2Cc2ccc(C(F)(F)F)cc2)c(SCc2nc(N)nc(N3CCN(c4cccc(F)c4)CC3)n2)cc1Cl
MCF7 [1]
  IC50: 4.6 µM
HCT-116 [2]
  IC50: 4.6 µM
HeLa
  IC50: 4.6 µM

## C[C@@H]1[C@@H]2CCCC[C@@H]2N2[C@H]1[C@@H](c1ccccc1)[C@@]1(CCC/C(=C\c3ccccc3)C1=O)[C@@]21C(=O)Nc2ccccc21
HeLa
  IC50: 7.1 µM

## COc1cc(OC)c(C(=O)/C=C/c2ccc(Br)cc2)c(OCC=C(C)C)c1
[21]
  IC50: 2.1 µM

## O=C1/C(=C/c2ccc(Br)cc2)CCC[C@]12[C@@H]1CCCN1[C@@]1(C(=O)Nc3ccccc31)[C@H]2c1ccc(Br)cc1
MCF7 [8]
  IC50: 15.5 µM
